Experimental data: publication PMC10989899, “MomL inhibits bacterial antibiotic resistance through the starvation stringent response pathway” (mLife, 2022)

Tests used:
LasR = target: T1, LasR (Pseudomonas aeruginosa, UniProt P25084); assay: EMSA, LasR binding to relA promoter DNA; assay type: biochemical; details: AHL required for DNA binding; the AHL added in EMSA is not named, 3-O-C12-HSL is that of LasR expression; 37 °C
T1 construct: recombinant, pET28a, E. coli BL21(DE3), Ni-NTA

[1] = system: RpoS (Pseudomonas aeruginosa PAO1); assay: SPR; details: binding buffer not stated, SPR: PBS, temperature not stated

T1 sequence (P25084 whole entry): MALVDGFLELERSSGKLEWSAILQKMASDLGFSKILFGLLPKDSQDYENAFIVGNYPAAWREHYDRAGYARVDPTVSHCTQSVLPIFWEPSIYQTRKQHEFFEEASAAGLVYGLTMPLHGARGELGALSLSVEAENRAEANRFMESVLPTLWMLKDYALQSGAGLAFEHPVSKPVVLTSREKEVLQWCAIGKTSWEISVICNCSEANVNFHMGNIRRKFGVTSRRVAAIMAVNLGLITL

Row | Compound | EMSA, LasR binding to relA promoter DNA (LasR) | Kd [1]
1 | CCCCCCCCCC(=O)CC(=O)N[C@H]1CCOC1=O [3-O-C12-HSL] | This binding depended on the presence of AHLs. | –
2 | H2-T6SS promoter DNA (SPR) | – | 87.6 nM
